Activity calls are given as the source filed them.
The compounds below were run against T1, Proto-oncogene tyrosine-protein kinase Src (Homo sapiens, UniProt P12931) (assay: nhibition of human purified recombinant pp60c-src tyrosine kinase at 100 uM (Inactive)).
T1 sequence (P12931 2-536 limits assumed): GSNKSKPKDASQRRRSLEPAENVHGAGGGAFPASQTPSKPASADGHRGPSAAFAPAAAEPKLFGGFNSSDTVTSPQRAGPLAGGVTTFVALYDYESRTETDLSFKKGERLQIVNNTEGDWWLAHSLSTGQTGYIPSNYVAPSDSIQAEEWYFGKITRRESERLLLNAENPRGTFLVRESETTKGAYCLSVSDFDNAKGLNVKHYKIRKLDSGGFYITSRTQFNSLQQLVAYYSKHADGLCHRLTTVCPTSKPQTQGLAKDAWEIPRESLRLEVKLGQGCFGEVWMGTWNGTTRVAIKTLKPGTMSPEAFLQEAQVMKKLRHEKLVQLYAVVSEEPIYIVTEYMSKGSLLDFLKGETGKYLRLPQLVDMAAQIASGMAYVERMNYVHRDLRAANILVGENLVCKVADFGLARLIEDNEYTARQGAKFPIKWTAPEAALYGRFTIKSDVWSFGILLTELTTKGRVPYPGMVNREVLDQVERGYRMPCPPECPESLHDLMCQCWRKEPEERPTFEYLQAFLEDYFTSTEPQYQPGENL

| SMILES | inhibition |
| --- | --- |
| COc1ccccc1CNC(=O)c1cc2ccc(O)cc2cc1O | inactive |
| COC(=O)c1cc2ccccc2cc1N | inactive |

These compounds were tested against T1, Proto-oncogene tyrosine-protein kinase Src (assay: Inhibition of human purified recombinant pp60c-src tyrosine kinase).

| SMILES | IC50 [µM] |
| --- | --- |
| O=C(Nc1cccc(O)c1)c1cc2cccc(O)c2cc1O | 150 |

These compounds were tested against T1, Proto-oncogene tyrosine-protein kinase Src (assay: Inhibition of human purified recombinant p60 c-Src tyrosine kinase at 100 uM).

| SMILES | inhibition [%] |
| --- | --- |
| O=C(NCc1ccccc1O)c1cc2cccc(O)c2cc1O | 41 |
| Oc1cc(O)cc(/C=C/c2ccc(O)c(O)c2)c1 | 41 |
| O=C(NCc1ccc(O)cc1)c1cc2cccc(O)c2cc1O | 49 |

What follows are compounds tested against T1, Proto-oncogene tyrosine-protein kinase Src (assay: Inhibition of human purified recombinant pp60c-src tyrosine kinase at 100 uM).

| SMILES | inhibition [%] |
| --- | --- |
| O=C(Nc1ccc(O)cc1O)c1cc2cccc(O)c2cc1O | 14 |
| COC(=O)c1cc2cccc(O)c2cc1O | 5 |
| O=C(Nc1ccc(O)cc1)c1cc2ccc(O)cc2cc1O | 23 |
| COC(=O)c1cc2ccc(O)cc2cc1O | 47 |
| Cc1cc(O)c2c(c1)C(=O)c1cc(O)cc(O)c1C2=O | 22 |
| O=C(NCc1ccccc1O)c1cc2ccc(O)cc2cc1O | 42 |
| O=C(Nc1cccc(O)c1)c1ccc2cc(O)ccc2c1 | 45 |
| O=C(Nc1ccccc1O)c1cc2ccc(O)cc2cc1O | 39 |
| COc1cccc(NC(=O)c2cc3cccc(O)c3cc2O)c1 | 33 |
| COc1ccc(NC(=O)c2cc3cccc(O)c3cc2O)cc1 | 35 |
| O=C(NCc1cccc(O)c1)c1cc2ccc(O)cc2cc1O | 55 |
| COc1ccc(CNC(=O)c2cc3cccc(O)c3cc2O)cc1 | 14 |
| O=C(Nc1ccccc1O)c1cc2cccc(O)c2cc1O | 12 |
| O=C(Nc1cccc(O)c1)c1cc2ccc(O)cc2cc1O | 89 |
| O=C(NCc1ccc(O)cc1)c1cc2ccc(O)cc2cc1O | 42 |
| O=C(Nc1cccc(O)c1)c1cc2cccc(O)c2cc1O | 51 |
| COc1ccccc1CNC(=O)c1cc2cccc(O)c2cc1O | 13 |

From ChEMBL document CHEMBL1133076, “The design, synthesis and activity of non-ATP competitive inhibitors of pp60(c-src) tyrosine kinase. Part 1: hydroxynaphthalene derivatives” (Bioorg Med Chem Lett, 2000)
